Assay results: US20090134028A1, “Method of Estimating Effect of Test Chemical on Living Organisms” (Chemicals Evaluation and Research Institute, priority 2005, published 2009)
Where two headings read alike, the source gives them in different places.

Legend:
[1] = cited from earlier work
[2] = Prediction of liver cell hypertrophy using SVM from post-translational modification data; parameters: species or system rat
[3] = SVM prediction of liver cell hypertrophy, training set, top-ranked 20 sets of post-translational modification data
[4] = known carcinogenicity of chemical, Tables 1 to 3
[5] = known carcinogenicity of chemical, Tables 8 to 11

In the case of Cc1ccc(N)cc1Cl [3-Chloro-p-toluidine], the Carcinogenicity ([1]; in vivo) is given as “−”.
For Nc1cc([N+](=O)[O-])ccc1C(=O)O [4-Nitroanthranylic acid], the Carcinogenicity ([1]; in vivo) is given as “−”.
In the case of Clc1c(Cl)c(Cl)c(Cl)c(Cl)c1Cl [Hexachlorobenzene], the “Finding of hepatocyte hypertrpy” value (liver cell; rat, in vivo) is reported as “+”.
For Cc1c2ccccc2c(C)c2c1ccc1ccccc12 [7,12-Dimethylbenzanthracene], the Carcinogenicity ([1]; in vivo) is given as “+”.
For Nc1ccc([N+](=O)[O-])cc1N [4-Nitro-o-phenylenediamine], the Prediction result [2] was −1 CORRECT, the “Finding of hepatocyte hypertrpy” value (liver cell; rat, in vivo) was “−” and the “pathology of liver cell hypertrophy in the liver” value (from here on “pathology”) (liver cell; rat, in vivo) was “no pathology of liver cell hypertrophy was seen”. The Carcinogenicity ([1]; in vivo) was “−”.
For CCN(N=O)C(N)=O [N-ethy-N-nitrosourea], the Carcinogenicity ([1]; in vivo) is listed as “+”.
With CCCCC(CC)COC(=O)c1ccccc1C(=O)OCC(CC)CCCC (centres unmarked) [Di(2-ethylhexyl)phthalate] the Prediction result [2, 3] was −1 (−1 and 1 indicates the incorrectly predicted compounds), the “Finding of hepatocyte hypertrpy” value (liver cell; rat, in vivo) was “+” and the “pathology” value (liver cell; rat, in vivo) was “pathology of liver cell hypertrophy was seen”. The Carcinogenicity ([1]; in vivo) was “+”.
In the case of O=C1NC(=O)C(c2ccccc2)(c2ccccc2)N1 [Phenytoin sodium], the Carcinogenicity [1, 4] is listed as “+” and the Carcinogenicity [1, 5] is listed as “+”.
For CCOC(N)=O [Urethane], the Carcinogenicity [1, 4] is given as “+” and the Carcinogenicity [1, 5] is given as “+”.
With CCN(CC)N=O [Diethylnitrosamine] the Prediction result [2] was −1 CORRECT, the “Finding of hepatocyte hypertrpy” value (liver cell; rat, in vivo) was “−” and the “pathology” value (liver cell; rat, in vivo) was “no pathology of liver cell hypertrophy was seen”. For the same molecule, the Carcinogenicity ([1]; in vivo) was “+”.
In the case of CC(N)=O [Acetamide], the Carcinogenicity ([1]; in vivo) is listed as “+”.
For CC(=N)S [Thioacetamide], the Carcinogenicity ([1]; in vivo) is listed as “+”.
In the case of CCC1(c2ccccc2)C(=O)NC(=O)NC1=O [Phenobarbital], the “Finding of hepatocyte hypertrpy” value (liver cell; rat, in vivo) is reported as “+” and the “pathology” value (liver cell; rat, in vivo) is reported as “pathology of liver cell hypertrophy was seen”.
In the case of CC/C(=C(/CC)c1ccc(O)cc1)c1ccc(O)cc1 [Diethylstilbestrol], the Carcinogenicity [1, 4] is listed as “+” and the Carcinogenicity [1, 5] is listed as “+”.
With OC[C@@H](O)[C@@H](O)[C@H](O)[C@H](O)CO [D-mannitol] the Prediction result [2, 3] was −1 CORRECT, the “Finding of hepatocyte hypertrpy” value (liver cell; rat, in vivo) was “−” and the “pathology” value (liver cell; rat, in vivo) was “no pathology of liver cell hypertrophy was seen”. The Carcinogenicity [1, 4] was “−” and the Carcinogenicity [1, 5] was “−”.
In the case of ClC(Cl)C(Cl)(Cl)Cl [Pentachloroethane], the Carcinogenicity ([1]; in vivo) is given as “+”.
In the case of O=[N+]([O-])c1cccc2ccccc12 [1-Nitronaphthalene], the Carcinogenicity ([1]; in vivo) is given as “−”.
In the case of CCOC(=O)C(C)(C)Oc1ccc(Cl)cc1 [Clofibrate], the “Finding of hepatocyte hypertrpy” value (liver cell; rat, in vivo) is listed as “+”, the “pathology” value (liver cell; rat, in vivo) is listed as “pathology of liver cell hypertrophy was seen” and the Carcinogenicity [1, 4] is listed as “+”. The Carcinogenicity [1, 5] was “+”.
For Cc1ccc(N)cc1N [2,4-Diaminotoluene], the Prediction result [2] was −1 CORRECT, the “Finding of hepatocyte hypertrpy” value (liver cell; rat, in vivo) was “−” and the “pathology” value (liver cell; rat, in vivo) was “no pathology of liver cell hypertrophy was seen”. The Carcinogenicity ([1]; in vivo) was “+”.
In the case of Cc1cnc2ccc3c(nc(N)n3C)c2n1 [2-Amino-3,8-dimethylimidazo[4,5-f]-quinoxaline], the Carcinogenicity ([1]; in vivo) is given as “+”.
In the case of CCCCC(CC)COC(=O)CCCCC(=O)OCC(CC)CCCC (centres unmarked) [Di(2-ethylhexyl)adipate], the Prediction result [2] is reported as 1, the “Finding of hepatocyte hypertrpy” value (liver cell; rat, in vivo) is reported as “−” and the “pathology” value (liver cell; rat, in vivo) is reported as “no pathology of liver cell hypertrophy was seen”.
In the case of O=C(c1ccccc1)C(O)c1ccccc1 (centres unmarked) [Benzoin], the Carcinogenicity ([1]; in vivo) is given as “−”.
In the case of ClC(Cl)(Cl)Cl [Carbon tetrachloride], the Prediction result [2] is reported as −1 CORRECT, the “Finding of hepatocyte hypertrpy” value (liver cell; rat, in vivo) is reported as “−” and the “pathology” value (liver cell; rat, in vivo) is reported as “no pathology of liver cell hypertrophy was seen”. For the same molecule, the Carcinogenicity ([1]; in vivo) was “+”.
For NC(=O)c1ccccc1C(N)=O [Phthalamide], the Carcinogenicity [1, 4] is listed as “−” and the Carcinogenicity [1, 5] is listed as “−”.
For ClC(Cl)=C(Cl)Cl [Tetrachloroethylene], the Carcinogenicity ([1]; in vivo) is listed as “+”.
For Cc1ccc2cc3c(ccc4ccccc43)c3c2c1CC3 [3-Methylcholantrene], the Carcinogenicity ([1]; in vivo) is listed as “+”.
For O=CCCCC=O [Glutaraldehyde], the Carcinogenicity [1, 4] is listed as “−” and the Carcinogenicity [1, 5] is listed as “−”.
With Cl[C@H]1[C@H](Cl)[C@H](Cl)[C@@H](Cl)[C@H](Cl)[C@H]1Cl [α-Hexachlorocyclohexane] the Prediction result [2] was “+1 CORRECT”, the “Finding of hepatocyte hypertrpy” value (liver cell; rat, in vivo) was “+” and the “pathology” value (liver cell; rat, in vivo) was “pathology of liver cell hypertrophy was seen”. The Carcinogenicity ([1]; in vivo) was “+”.
In the case of CCSCCC(N)C(=O)O (racemic) [D,L-ethionin], the Carcinogenicity ([1]; in vivo) is given as “+”.
In the case of ClC(Cl)Cl [Chloroform], the Carcinogenicity ([1]; in vivo) is listed as “+”.
For Nc1ccc(N)c(Cl)c1.O=S(=O)(O)O [2-Chloro-p-phenylenediamine sulfate], the Carcinogenicity ([1]; in vivo) is given as “−”.
For CC(C)[C@@H]1CC[C@@H](C)C[C@H]1O (racemic) [DL-menthol], the Prediction result [2] was “+1 CORRECT”, the “Finding of hepatocyte hypertrpy” value (liver cell; rat, in vivo) was “+” and the “pathology” value (liver cell; rat, in vivo) was “pathology of liver cell hypertrophy was seen”. For the same molecule, the Carcinogenicity ([1]; in vivo) was “−”.
For Cl.ClCc1ccccn1 [2-(Chloromethyl)pyridine hydrochloride], the Prediction result [2] was −1 CORRECT, the “Finding of hepatocyte hypertrpy” value (liver cell; rat, in vivo) was “−” and the “pathology” value (liver cell; rat, in vivo) was “no pathology of liver cell hypertrophy was seen”. The Carcinogenicity [1, 4] was “−” and the Carcinogenicity [1, 5] was “−”.
For C#C[C@]1(O)CC[C@H]2[C@@H]3CCc4cc(O)ccc4[C@H]3CC[C@@]21C [Ethinylestradiol], the “Finding of hepatocyte hypertrpy” value (liver cell; rat, in vivo) is listed as “−”, the “pathology” value (liver cell; rat, in vivo) is listed as “no pathology of liver cell hypertrophy was seen” and the Carcinogenicity [1, 4] is listed as “+”. The Carcinogenicity [1, 5] was “+”.
In the case of CC(C)[N+](=O)[O-] [2-Nitropropane], the Prediction result [2] is reported as −1 CORRECT, the “Finding of hepatocyte hypertrpy” value (liver cell; rat, in vivo) is reported as “−” and the “pathology” value (liver cell; rat, in vivo) is reported as “no pathology of liver cell hypertrophy was seen”.
For CC(=O)Oc1ccccc1C(=O)O [Aspirin], the Carcinogenicity [1, 4] is given as “−” and the Carcinogenicity [1, 5] is given as “−”.
For O=C(O)C(Cl)(Cl)Cl [Trichloroacetic acid], the Carcinogenicity ([1]; in vivo) is given as “+”.
With C1COCCO1 [1,4-Dioxane] the Prediction result [2] was −1 CORRECT, the “Finding of hepatocyte hypertrpy” value (liver cell; rat, in vivo) was “−” and the “pathology” value (liver cell; rat, in vivo) was “no pathology of liver cell hypertrophy was seen”.
For Oc1cccc2cccnc12 [8-Hydrxyquinoline], the Prediction result [2] was −1 CORRECT, the “Finding of hepatocyte hypertrpy” value (liver cell; rat, in vivo) was “−” and the “pathology” value (liver cell; rat, in vivo) was “no pathology of liver cell hypertrophy was seen”. For the same molecule, the Carcinogenicity ([1]; in vivo) was “−”.
For Clc1ccc(Cl)cc1 [1,4-Dichlorobenzene], the Prediction result [2] was “+1 CORRECT”, the “Finding of hepatocyte hypertrpy” value (liver cell; rat, in vivo) was “+” and the “pathology” value (liver cell; rat, in vivo) was “pathology of liver cell hypertrophy was seen”. The Carcinogenicity ([1]; in vivo) was “+”.
For Cl.Cl.Nc1ccc(N)cc1 [p-Phenylenediamine dihydrochloride], the Carcinogenicity ([1]; in vivo) is given as “−”.
In the case of c1ccoc1 [Furan], the Prediction result [2] is reported as −1, the “Finding of hepatocyte hypertrpy” value (liver cell; rat, in vivo) is reported as “+” and the “pathology” value (liver cell; rat, in vivo) is reported as “pathology of liver cell hypertrophy was seen”. For the same molecule, the Carcinogenicity ([1]; in vivo) was “+”.
With COC(N)=O [Methyl carbamate] the Prediction result [2, 3] was −1 CORRECT, the “pathology” value (liver cell; after 28 days repeated administration) was “no pathology of liver cell hypertrophy was seen” and the “Finding of hepatocyte hypertrpy” value (liver cell; rat liver after 28 days repeated administration) was “−”.
In the case of CC(=O)Nc1ccc(C(=O)CCl)cc1 [4-(Chloroacetyl)acetanilide], the Carcinogenicity ([1]; in vivo) is listed as “−”.
In the case of c1ccc2cc3c(ccc4ccccc43)cc2c1 [Benz(a)anthracene], the Carcinogenicity ([1]; in vivo) is listed as “+”.
In the case of O=C(O)C1C(C(=O)O)C2(Cl)C(Cl)=C(Cl)C1(Cl)C2(Cl)Cl (centres unmarked) [Chlorendic acid], the Carcinogenicity ([1]; in vivo) is given as “+”.
In the case of O=C1CCCCCN1 [Caprolactam], the Carcinogenicity [1, 4] is given as “−” and the Carcinogenicity [1, 5] is given as “−”.
With Cc1c(N)cccc1N [2,6-Diaminotoluene] the Prediction result [2, 3] was −1 CORRECT, the “Finding of hepatocyte hypertrpy” value (liver cell; rat, in vivo) was “−” and the “pathology” value (liver cell; rat, in vivo) was “no pathology of liver cell hypertrophy was seen”.
For IC(I)I [Iodoform], the Prediction result [2, 3] is given as “+1 CORRECT”, the “Finding of hepatocyte hypertrpy” value (liver cell; rat, in vivo) is given as “+” and the Carcinogenicity ([1]; in vivo) is given as “−”.
With ClC1=C(Cl)C2(Cl)C3C4C=CC(C4)C3C1(Cl)C2(Cl)Cl (centres unmarked) [Aldrin] the Prediction result [2] was −1 CORRECT, the “Finding of hepatocyte hypertrpy” value (liver cell; rat, in vivo) was “−” and the “pathology” value (liver cell; rat, in vivo) was “no pathology of liver cell hypertrophy was seen”. The Carcinogenicity ([1]; in vivo) was “+”.
In the case of COc1ccc(O)c(C(C)(C)C)c1 [Butylated hydroxyanisole], the Prediction result [2] is reported as −1 CORRECT, the “Finding of hepatocyte hypertrpy” value (liver cell; rat, in vivo) is reported as “−” and the “pathology” value (liver cell; rat, in vivo) is reported as “no pathology of liver cell hypertrophy was seen”. The Carcinogenicity ([1]; in vivo) was “+”.
For CC(O)CCl (centres unmarked) [1-Chloro-2-propanol], the Carcinogenicity ([1]; in vivo) is given as “−”.
In the case of C=CCc1ccc2c(c1)OCO2 [Safrole], the Prediction result [2] is reported as “+1 CORRECT”, the “Finding of hepatocyte hypertrpy” value (liver cell; rat, in vivo) is reported as “+” and the “pathology” value (liver cell; rat, in vivo) is reported as “pathology of liver cell hypertrophy was seen”. The Carcinogenicity ([1]; in vivo) was “+”.
For O=C1O[C@H]([C@@H](O)CO)C(O)=C1O [L-ascorbic acid], the Prediction result [2, 3] was −1 CORRECT and the “Finding of hepatocyte hypertrpy” value (liver cell; rat, in vivo) was “−”.
For Cc1cc(N)ccc1N.O=S(=O)(O)O [2,5-Toluenediamine sulfate], the Carcinogenicity ([1]; in vivo) is given as “−”.
In the case of c1ccc2ncccc2c1 [Quinoline], the Prediction result [2, 3] is reported as −1 CORRECT, the “Finding of hepatocyte hypertrpy” value (liver cell; rat, in vivo) is reported as “−” and the “pathology” value (liver cell; rat, in vivo) is reported as “no pathology of liver cell hypertrophy was seen”. For the same molecule, the Carcinogenicity ([1]; in vivo) was “+”.
In the case of ClC=C(Cl)Cl [Trichloroethylene], the Prediction result [2] is reported as −1 CORRECT, the “Finding of hepatocyte hypertrpy” value (liver cell; rat, in vivo) is reported as “−” and the “pathology” value (liver cell; rat, in vivo) is reported as “no pathology of liver cell hypertrophy was seen”. The Carcinogenicity ([1]; in vivo) was “+”.
In the case of Cn1c(N)nc2ncc(-c3ccccc3)cc21 [2-Amino-1-methyl-6-phenylimidazo[4,5-b]-pyridine], the Carcinogenicity ([1]; in vivo) is listed as “+”.
In the case of CN(C)N=O [N-nitrsodimethylamine], the Carcinogenicity ([1]; in vivo) is given as “+”.
For CN(C)c1ccc(N=Nc2ccccc2)cc1 [4-Dimethylaminoaxobenzene], the Carcinogenicity ([1]; in vivo) is listed as “+”.
